Measurements published in patent US20240158369A1, “PYRIMIDINE COMPOUND AS WEE-1 INHIBITOR” (WIGEN BIOMEDICINE TECHNOLOGY (SHANGHAI) CO., LTD., priority 2021, published 2024).

Assays:
[1] = target: recombinant protein Wee-1 (Homo sapiens (Human), UniProt P30291); experiment: HTRF assay for inhibiting enzymatic activity of recombinant protein Wee-1; format: biochemical; conditions: compounds up to 200 nM, read-out: (IC50) Inhibitory activity against recombinant protein Wee-1
Description: The inhibitory effect of the compounds on the enzyme activity of recombinant protein Wee-1 was determined by HTRF. The procedures are as follows:
After DMSO or serially diluted compounds (up to 200 nM, 1:5 diluted) and recombinant proteins were co-incubated in a kinase buffer at 37° C. for 30 min before Fluorescein-PolyGAT and ATP were added, and the reaction was initiated by addition of a substrate. After incubation at room temperature for 90 min, an antibody and a detection solution were added, and after further incubation at room temperature for 60 min, fluorescence values were detected (excitation wavelength: 340 nm, emission wavelengths: 495 and 520 nm). The 520 nm/495 nm fluorescence intensity ratio value was calculated, and compared with that of the DMSO group, and then the inhibition percentages and IC50 values of the compounds were calculated.

MIA PaCa-2 cells [2] = experiment: In-vitro anti-proliferative activity in combination with gemcitabine on MIA PaCa-2 cells; format: cell-based; conditions: 72 h
Description: (§1) MIA PaCa-2 cells were seeded on a 384-well plate at 3000 cells/well, and 20 nM or 200 nM gemcitabine (GMC) was added. After overnight adherence culture, DMSO or the compounds serially 1:5-diluted from 100 nM were added. The viability was assessed 72 h after dosing by measuring the intracellular ATP content. The inhibition percentage of viable cells by the compounds was calculated by comparing with the DMSO group, and the IC50 value was calculated.

[3] = system: HT29 subcutaneous xenograft tumor; experiment: Mouse HT29 subcutaneous xenograft tumor model (Example 165), with 30 mg/kg gemcitabine; format: in vivo
Description: HT29 is a colon cancer cell. Each nude mouse was grafted subcutaneously with 5×10^6HT29 cells. When the tumor grew to 100-200 mm^3, the compound was administered orally once a day in combination with 30 mg/kg of gemcitabine injected intraperitoneally once a week, and the tumor volume was measured twice a week and at the end of treatment. Tumor growth inhibition of the compound was calculated according to the following equation: tumor growth inhibition (TGI)=1−(tumor volume on day 20 in treatment group−tumor volume on day 1 in treatment group)/(tumor volume on day 20 in vehicle control group−tumor volume on day 1 in treatment group).

[4] = system: HT29 subcutaneous xenograft tumor; experiment: Mouse HT29 subcutaneous xenograft tumor model (Example 164), alone or with 15 mg/kg gemcitabine; format: in vivo
Description: HT29 is a colon cancer cell. Each nude mouse was grafted subcutaneously with 5×10^6HT29 cells. When the tumor grew to 100-200 mm^3, the compound was administered orally once a day alone or in combination with 15 mg/kg of gemcitabine injected intraperitoneally once a week, and the tumor volume was measured twice a week and at the end of treatment. Tumor growth inhibition of the compound was calculated according to the following equation: tumor growth inhibition (TGI)=1−(tumor volume on day 20 in treatment group−tumor volume on day 1 in treatment group)/(tumor volume on day 20 in vehicle control group−tumor volume on day 1 in treatment group).

MIA PaCa-2 cells [5] = experiment: In-vitro anti-proliferative activity on MIA PaCa-2 cells (intracellular ATP content, 72 h); format: cell-based; conditions: Homo sapiens, compound alone, read-out: IC50 (nM) antiproliferative activity against MIA PaCa-2 cells
Description: as §1, with “cells/well.” for “cells/well, and 20 nM or 200 nM gemcitabine (GMC) was added.”, “5 μM” for “100 nM”

[6] = with 20 nM gemcitabine, read-out: in combination with 20 nM GMC IC50
[7] = 30 mg/kg orally once a day in combination with 30 mg/kg of gemcitabine ip once a week
[8] = 30 mg/kg orally once a day in combination with 30 mg/kg of gemcitabine ip once a week, day 20
[9] = 30 mg/kg orally once a day in combination with 15 mg/kg of gemcitabine ip once a week, day 1
[10] = 30 mg/kg orally once a day in combination with 15 mg/kg of gemcitabine ip once a week, day 20
[11] = monotherapy, 30 mg/kg orally once a day, nude mouse HT29, day 1
[12] = monotherapy, 30 mg/kg orally once a day, nude mouse HT29, day 20
[13] = with 200 nM gemcitabine, read-out: in combination with 200 nM GMC IC50
[14] = gemcitabine alone 15 mg/kg intraperitoneally once a week, day 20

Sequence of recombinant protein Wee-1 (P30291 whole entry): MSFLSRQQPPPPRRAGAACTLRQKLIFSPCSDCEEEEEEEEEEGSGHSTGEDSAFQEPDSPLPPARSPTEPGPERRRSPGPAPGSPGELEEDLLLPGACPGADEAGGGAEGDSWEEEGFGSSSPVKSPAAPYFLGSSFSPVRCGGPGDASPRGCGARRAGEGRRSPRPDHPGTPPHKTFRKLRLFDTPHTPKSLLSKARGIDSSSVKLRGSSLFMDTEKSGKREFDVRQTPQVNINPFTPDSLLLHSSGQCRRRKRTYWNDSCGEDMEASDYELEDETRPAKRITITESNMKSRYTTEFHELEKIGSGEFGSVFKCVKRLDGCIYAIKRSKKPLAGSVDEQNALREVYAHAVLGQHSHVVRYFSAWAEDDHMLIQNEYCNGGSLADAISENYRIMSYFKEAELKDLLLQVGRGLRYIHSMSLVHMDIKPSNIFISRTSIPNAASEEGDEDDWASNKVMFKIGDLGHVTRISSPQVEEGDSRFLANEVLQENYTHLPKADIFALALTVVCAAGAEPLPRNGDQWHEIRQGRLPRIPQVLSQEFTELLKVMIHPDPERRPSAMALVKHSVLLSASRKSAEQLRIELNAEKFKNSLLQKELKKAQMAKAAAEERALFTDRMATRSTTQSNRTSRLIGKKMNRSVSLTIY

| SMILES | IC50 [1] [µM] | IC50 (MIA PaCa-2 cells [2]; [6]) [µM] | further results |
| --- | --- | --- | --- |
| CN1CCc2c(cc(Nc3ncc(C#N)c(Nc4cccc(N=S(C)(C)=O)n4)n3)cc2C2CCCC2)C1 [Compound 18] | ≤ 0.01 | 0.0021 | Tumor volume on day 20 of treatment (mm^3) [3, 7]: 218 mm^3; TGI [3, 8]: 92% |
| CCN1CCc2c(cc(Nc3ncc(C#N)c(Nc4cccc(N=S(C)(C)=O)n4)n3)cc2C2CC2)C1 [Compound 137] | ≤ 0.01 | 0.0033 | Tumor volume on day 1 of treatment (mm^3) [4, 9]: 102 mm^3; TGI [4, 10]: 100%; Tumor volume on day 20 of treatment (mm^3) [4, 10]: 97 mm^3; Tumor volume on day 1 of treatment (mm^3) [4, 11]: 102 mm^3; TGI [4, 12]: 51%; Tumor volume on day 20 of treatment (mm^3) [4, 12]: 573 mm^3 |
| CN1CCc2ccc(Nc3ncc(P(C)(C)=O)c(Nc4cccc(N=S(C)(C)=O)n4)n3)cc2C1 [Compound 4] | > 0.05 | > 0.1 | IC50 (MIA PaCa-2 cells [5]): > 5000 nM |
| CC(C)Cc1cc(Nc2ncc(C#N)c(Nc3cccc(N=S(C)(C)=O)n3)n2)cc2c1CCN(C)C2 [Compound 87] |  | 0.0018 | Tumor volume on day 20 of treatment (mm^3) [3, 7]: 395 mm^3; TGI [3, 8]: 79% |
| CN1CCc2c(cc(Nc3ncc(C#N)c(Nc4cccc(N=S(C)(C)=O)n4)n3)cc2C2CCOCC2)C1 [Compound 117] | ≤ 0.01 | 0.0015 | Tumor volume on day 20 of treatment (mm^3) [3, 7]: 283 mm^3; TGI [3, 8]: 87% |
| CN1CCc2c(cc(Nc3ncc(C#N)c(Nc4cccc(N=S(C)(C)=O)n4)n3)cc2C2(C)CC2)C1 [Compound 101] | ≤ 0.01 | 0.0044 | Tumor volume on day 20 of treatment (mm^3) [3, 7]: 95 mm^3; TGI [3, 8]: 102% |
| CN1CCc2c(cc(Nc3ncc(C#N)c(Nc4cccc(N=S(C)(C)=O)n4)n3)cc2C2CCC2)C1 [Compound 97] | ≤ 0.01 | 0.0016 | Tumor volume on day 20 of treatment (mm^3) [3, 7]: 278 mm^3; TGI [3, 8]: 88% |
| COCCCc1cc(Nc2ncc(C#N)c(Nc3cccc(N=S(C)(C)=O)n3)n2)cc2c1CCN(C)C2 [Compound 128] | ≤ 0.01 | 0.0025 | Tumor volume on day 20 of treatment (mm^3) [3, 7]: 284 mm^3; TGI [3, 8]: 87% |
| CCc1cc(Nc2ncc(C#N)c(Nc3cccc(N=S(C)(C)=O)n3)n2)cc2c1CCN(C)C2 [Compound 13] | ≤ 0.01 |  | IC50 (MIA PaCa-2 cells [2]; [13]): 0.001 µM; Tumor volume on day 1 of treatment (mm^3) [4, 9]: 102 mm^3; TGI [4, 10]: 109%; Tumor volume on day 20 of treatment (mm^3) [4, 10]: 14 mm^3; Tumor volume on day 1 of treatment (mm^3) [4, 11]: 102 mm^3; TGI [4, 12]: 97%; Tumor volume on day 20 of treatment (mm^3) [4, 12]: 129 mm^3 |
| CN1CCc2ccc(Nc3ncc(C(F)(F)F)c(Nc4cccc(N=S(C)(C)=O)n4)n3)cc2C1 [Compound 2] | > 0.05 | 0.03 | IC50 (MIA PaCa-2 cells [5]): 398 nM |
| CN1CCc2ccc(Nc3ncc(C4CC4)c(Nc4cccc(N=S(C)(C)=O)n4)n3)cc2C1 [Compound 3] | > 0.05 |  | IC50 (MIA PaCa-2 cells [5]): 879 nM; IC50 (MIA PaCa-2 cells [2]; [13]): > 0.1 µM |
| COC/C=C/c1cc(Nc2ncc(C#N)c(Nc3cccc(N=S(C)(C)=O)n3)n2)cc2c1CCN(C)C2 [Compound 129] | ≤ 0.01 | 0.0042 |  |
| CN1CCc2c(cc(Nc3ncc(C#N)c(Nc4cccc(N=S(C)(C)=O)n4)n3)cc2C2=CCCC2)C1 [Compound 17] | ≤ 0.01 | 0.011 |  |
| CN1CCc2ccc(Nc3ncc(C#N)c(Nc4cccc(N=S(C)(C)=O)n4)n3)cc2C1 [Compound 1] | ≤ 0.01 | 0.0046 | IC50 (MIA PaCa-2 cells [5]): 735 nM |
| Nc1ccn([C@@H]2O[C@H](CO)[C@@H](O)C2(F)F)c(=O)n1 [Gemcitabine, gemcitabine, reference compound] |  |  | Tumor volume on day 1 of treatment (mm^3) ([4]; gemcitabine alone 15 mg/kg intraperitoneally once a week, day 1): 102 mm^3; TGI [4, 14]: 54%; Tumor volume on day 20 of treatment (mm^3) [4, 14]: 550 mm^3; inhibition in vivo at 30 mg/kg ([3]; Mus musculus, HT-29, ip, 480 h, gemcitabine alone 30 mg/kg intraperitoneally once a week, day 20, read-out: TGI): 60%; Tumor volume on day 20 of treatment (mm^3) ([3]; gemcitabine alone 30 mg/kg intraperitoneally once a week): 653 mm^3 |
| CN1CCc2ccc(Nc3ncc(C#N)c(Nc4cccc(N=S(C)(C)=O)c4)n3)cc2C1 [Compound 64] | ≤ 0.01 | 0.034 |  |
| CN1CCc2c(cc(Nc3ncc(C#N)c(Nc4cccc(N=S(C)(C)=O)n4)n3)cc2CN2CCOCC2)C1 [Compound 121] | ≤ 0.01 | 0.113 |  |
| C=C(C)c1cc(Nc2ncc(C#N)c(Nc3cccc(N=S(C)(C)=O)n3)n2)cc2c1CCN(C)C2 [Compound 15] | ≤ 0.01 | 0.0018 |  |
| CN1CCN(c2ccc(Nc3ncc(C#N)c(Nc4cccc(N=S(C)(C)=O)n4)n3)cc2C2CC2)CC1 [Compound 155] | ≤ 0.01 | 0.0054 |  |
| C=Cc1cc(N=S(C)(C)=O)nc(Nc2nc(Nc3ccc4c(c3)CN(C)CC4)ncc2C#N)c1 [Compound 85] | ≤ 0.01 |  | IC50 (MIA PaCa-2 cells [2]; [13]): > 0.1 µM |
| CN(C)C1CCc2ccc(Nc3ncc(C#N)c(Nc4cccc(N=S(C)(C)=O)n4)n3)cc2CC1 (centres unmarked) [Compound 52] | ≤ 0.01 | 0.0045 |  |
| Cc1cc(Nc2ncc(C#N)c(Nc3cccc(N=S(C)(C)=O)n3)n2)cc(C)c1N1CCN(C)CC1 [Compound 154] | ≤ 0.01 | 0.0024 |  |
| CN1CCN(c2cccc(Nc3ncc(C#N)c(Nc4cccc(N=S(C)(C)=O)n4)n3)c2)CC1 [Compound 63] | ≤ 0.01 | 0.0184 |  |
| CN(C)Cc1cc(Nc2ncc(C#N)c(Nc3cccc(N=S(C)(C)=O)n3)n2)cc2c1CCN(C)C2 [Compound 130] | ≤ 0.01 | 0.01 |  |
| CN1CCc2ccc(Nc3ncc(-c4cn[nH]c4)c(Nc4cccc(N=S(C)(C)=O)n4)n3)cc2C1 [Compound 10] | > 0.05 | > 0.1 |  |
| CC(C)c1cc(Nc2ncc(C#N)c(Nc3cccc(N=S(C)(C)=O)n3)n2)cc2c1CCN(C)C2 [Compound 14] | ≤ 0.01 | 0.001 | Tumor volume on day 20 of treatment (mm^3) [3, 7]: 38 mm^3; TGI [3, 8]: 106% |
| CN1CCc2c(cc(Nc3ncc(C#N)c(Nc4cccc(N=S(C)(C)=O)n4)n3)cc2C2CC2)C1 [Compound 16] | ≤ 0.01 |  | IC50 (MIA PaCa-2 cells [2]; [13]): 0.001 µM; Tumor volume on day 1 of treatment (mm^3) [4, 9]: 102 mm^3; TGI [4, 10]: 104%; Tumor volume on day 20 of treatment (mm^3) [4, 10]: 58 mm^3; Tumor volume on day 1 of treatment (mm^3) [4, 11]: 102 mm^3; TGI [4, 12]: 79%; Tumor volume on day 20 of treatment (mm^3) [4, 12]: 307 mm^3 |
| CN1CCc2ccc(Nc3ncc(C#N)c(N4CCc5c(N=S(C)(C)=O)cccc54)n3)cc2C1 [Compound 77] | ≤ 0.01 |  | IC50 (MIA PaCa-2 cells [2]; [13]): > 0.1 µM |
| CN1CCc2c(cc(Nc3ncc(C#N)c(Nc4cccc(N=S(C)(C)=O)n4)n3)cc2N2CCCCC2)C1 [Compound 115] | ≤ 0.01 | 0.0093 |  |
| CN1CCc2ccc(Nc3ncc(-c4ccco4)c(Nc4cccc(N=S(C)(C)=O)n4)n3)cc2C1 [Compound 9] | > 0.05 | > 0.1 |  |
